For the test, the system named is NRF2 (NQO1 activity as marker for NRF2 activation), BEAS-2B cells. Description: BEAS-2B NQO1 MTT Assay. It is filed as cell-based. The note with it: Homo sapiens, EC50 of NQO1 specific activity induction, 48 hours incubation, read-out: EC50. The method in brief: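 BEAS-2B cells were exposed to compound for 48 h at 37° C, 5% CO2, then lysed. NQO1 activity was measured kinetically by MTT reduction at 570 nm over 30 minutes; EC50 came from 3-parameter fit of Delta OD/min versus log concentration.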

The structures appear in SMILES notation. Counter-ions that a name gives are not always drawn.

Consider `CC[C@@H]1CN(Cc2cc([C@H](CC(=O)Nc3cnsc3)c3ccc4c(nnn4CC)c3C)ccc2C)S(=O)(=O)c2cccnc2O1` [Example 2, (S)-3-(3-(((R)-4-Ethyl-1,1-dioxido-3,4-dihydro-2H-pyrido[2,3-b][1,4,5]oxathiazepin-2-yl)methyl)-4-methylphenyl)-3-(1-ethyl-4-methyl-1H-benzo[d][1,2,3]triazol-5-yl)-N-(isothiazol-4-yl)propanamide], for which the EC50 lay in the range of 10 to 100 nM.

On to `CC[C@@H]1CN(Cc2cc([C@H](CC(=O)Nc3cccnc3)c3ccc4c(nnn4C)c3C)ccc2C)Cc2ncccc2O1` [Example 47, (S)-3-(1,4-Dimethyl-1H-benzo[d][1,2,3]triazol-5-yl)-3-(3-(((R)-2-ethyl-2,3-dihydropyrido[2,3-f][1,4]oxazepin-4(5H)-yl)methyl)-4-methylphenyl)-N-(pyridin-3-yl)propanamide, Formic Acid Salt], for which the concentration giving a half-maximal response (EC50) was in the range of 100 to 1000 nM.

On to `CC[C@@H]1CN(Cc2cc([C@@H](c3ccc4c(nnn4CC)c3C)C(C)(C)C(N)=O)ccc2C)S(=O)(=O)c2cccnc2O1` [Example 68, (S)-3-(3-(((R)-4-Ethyl-1,1-dioxido-3,4-dihydro-2H-pyrido[2,3-b][1,4,5]oxathiazepin-2-yl)methyl)-4-methylphenyl)-3-(1-ethyl-4-methyl-1H-benzo[d][1,2,3]triazol-5-yl)-2,2-dimethylpropanamide], for which the EC50 was in the range of 1 to 10 nM.

On to `CC[C@@H]1CN(Cc2cc([C@H](CC(=O)Nc3ccncn3)c3ccc4c(nnn4CC)c3C)ccc2C)S(=O)(=O)c2cccnc2O1` [Example 108, (S)-3-(3-(((R)-4-Ethyl-1,1-dioxido-3,4-dihydro-2H-pyrido[2,3-b][1,4,5]oxathiazepin-2-yl)methyl)-4-methylphenyl)-3-(1-ethyl-4-methyl-1H-benzo[d][1,2,3]triazol-5-yl)-N-(pyrimidin-4-yl)propanamide], for which the EC50 was in the range of 100 to 1000 nM.

On to `CC[C@@H]1CN(Cc2cc([C@H](CC(=O)NC3CCCC3)c3ccc4c(nnn4CC)c3C)ccc2C)S(=O)(=O)c2cccnc2O1` [Example 171, (S)-N-cyclopentyl-3-(3-(((R)-4-ethyl-1,1-dioxido-3,4-dihydro-2H-pyrido[2,3-b][1,4,5]oxathiazepin-2-yl)methyl)-4-methylphenyl)-3-(1-ethyl-4-methyl-1H-benzo[d][1,2,3]triazol-5-yl)propanamide], for which the EC50 lay within 100 to 1000 nM.

On to `CCCn1cc(CO[C@H](c2ccc(C)c(CN3C[C@@H](C)Cc4ncccc4S3(=O)=O)c2)C(C)(C)C(=O)Nc2cccnc2)nn1` [Example 50, (R)-2,2-Dimethyl-3-(4-methyl-3-(((S)-4-methyl-1,1-dioxido-4,5-dihydropyrido[2,3-f][1,2]thiazepin-2(3H)-yl)methyl)phenyl)-3-((1-propyl-1H-1,2,3-triazol-4-yl)methoxy)-N-(pyridin-3-yl)propanamide, Formic acid salt], for which the EC50 lay within 100 to 1000 nM.

As to `Cc1ccc([C@@H](c2ccc3c(nnn3C)c2C)C(C)(C)C(=O)Nc2cccnc2)cc1Cn1ccnc1CC1CCCCCC1` [Example 173, (S)-3-(3-((2-(cycloheptylmethyl)-1H-imidazol-1-yl)methyl)-4-methylphenyl)-3-(1,4-dimethyl-1H-benzo[d][1,2,3]triazol-5-yl)-2,2-dimethyl-N-(pyridin-3-yl)propanamide], the 50% effective concentration (EC50) was 10 to 100 nM.

Turning to `CCOCCOc1ncc(C(=O)NC(C)(C)[C@@H](c2ccc(C)c(CN3C[C@@H](CC)Oc4ccccc4S3(=O)=O)c2)c2ccc3c(nnn3CC)c2C)cn1` [Example 163, 2-(2-Ethoxyethoxy)-N-((S)-1-(3-(((R)-4-ethyl-1,1-dioxido-3,4-dihydro-2H-benzo[b][1,4,5]oxathiazepin-2-yl)methyl)-4-methylphenyl)-1-(1-ethyl-4-methyl-1H-benzo[d][1,2,3]triazol-5-yl)-2-methylpropan-2-yl)pyrimidine-5-carboxamide], the EC50 lay in the range of 1 to 10 nM.

In the case of `CC[C@H]1Cc2ccccc2S(=O)(=O)N(Cc2cc([C@H](CC(=O)Nc3cccnc3)c3ccc4c(nnn4CC)c3F)ccc2C)C1` [Example 80, (S)-3-(3-(((S)-4-Ethyl-1,1-dioxido-4,5-dihydrobenzo[f][1,2]thiazepin-2(3H)-yl)methyl)-4-methylphenyl)-3-(1-ethyl-4-fluoro-1H-benzo[d][1,2,3]triazol-5-yl)-N-(pyridin-3-yl)propanamide], the EC50 was 10 to 100 nM.

For `CC[C@@H]1CN(Cc2cc([C@@H](c3ccc4c(nnn4CC)c3C)C(C)(C)NC(=O)c3cocn3)ccc2C)S(=O)(=O)c2ccccc2O1` [Example 151, N-((S)-1-(3-(((R)-4-Ethyl-1,1-dioxido-3,4-dihydro-2H-benzo[b][1,4,5]oxathiazepin-2-yl)methyl)-4-methylphenyl)-1-(1-ethyl-4-methyl-1H-benzo[d][1,2,3]triazol-5-yl)-2-methylpropan-2-yl)oxazole-4-carboxamide], the EC50 lay in the range of 10 to 100 nM.

As for `CC[C@@H]1CN(Cc2cc([C@@H](c3ccc4c(nnn4CC)c3C)C(C)(C)NC(=O)CS(C)(=O)=O)ccc2C)S(=O)(=O)c2ccccc2O1` [Example 143, N-((S)-1-(3-(((R)-4-Ethyl-1,1-dioxido-3,4-dihydro-2H-benzo[b][1,4,5]oxathiazepin-2-yl)methyl)-4-methylphenyl)-1-(1-ethyl-4-methyl-1H-benzo[d][1,2,3]triazol-5-yl)-2-methylpropan-2-yl)-2-(methylsulfonyl)acetamide], the EC50 lay within 10 to 100 nM.

`CC[C@@H]1CN(Cc2cc([C@@H](c3ccc4c(nnn4CC)c3C)C(C)(C)C(=O)NC(CC(=O)O)CC(=O)O)ccc2C)S(=O)(=O)c2ccccc2O1` [Example 203, 3-((S)-3-(3-(((R)-4-ethyl-1,1-dioxido-3,4-dihydro-2H-benzo[b][1,4,5]oxathiazepin-2-yl)methyl)-4-methylphenyl)-3-(1-ethyl-4-methyl-1H-benzo[d][1,2,3]triazol-5-yl)-2,2-dimethylpropanamido)pentanedioic acid]: the EC50 is 1000 to 10000 nM.

Consider `CC[C@@H]1CN(Cc2cc([C@@H](c3ccc4c(nnn4CC)c3C)C(C)(C)NC(=O)c3ccc(=O)[nH]c3)ccc2C)S(=O)(=O)c2ccccc2O1` [Example 156, N-((S)-1-(3-(((R)-4-Ethyl-1,1-dioxido-3,4-dihydro-2H-benzo[b][1,4,5]oxathiazepin-2-yl)methyl)-4-methylphenyl)-1-(1-ethyl-4-methyl-1H-benzo[d][1,2,3]triazol-5-yl)-2-methylpropan-2-yl)-6-oxo-1,6-dihydropyridine-3-carboxamide], for which the EC50 lay within 100 to 1000 nM.

As to `CC[C@H]1Cc2ccccc2S(=O)(=O)N(Cc2cc([C@@H](c3ccc4c(nnn4CC)c3C)C(C)(C)C(=O)Nc3nnnn3Cc3nccs3)ccc2C)C1` [Example 75, (S)-3-(3-(((S)-4-Ethyl-1,1-dioxido-4,5-dihydrobenzo[f][1,2]thiazepin-2(3H)-yl)methyl)-4-methylphenyl)-3-(1-ethyl-4-methyl-1H-benzo[d][1,2,3]triazol-5-yl)-2,2-dimethyl-N-(1-(thiazol-2-ylmethyl)-1H-tetrazol-5-yl)propanamide], the EC50 lay within 1 to 10 nM.

Turning to `CC[C@@H]1CN(Cc2cc([C@H](CC(=O)Nc3ccnn3C)c3ccc4c(nnn4CC)c3C)ccc2C)S(=O)(=O)c2cccnc2O1` [Example 9, (S)-3-(3-(((R)-4-Ethyl-1,1-dioxido-3,4-dihydro-2H-pyrido[2,3-b][1,4,5]oxathiazepin-2-yl)methyl)-4-methylphenyl)-3-(1-ethyl-4-methyl-1H-benzo[d][1,2,3]triazol-5-yl)-N-(1-methyl-1H-pyrazol-5-yl)propanamide], the EC50 lay in the range of 100 to 1000 nM.

What is called EC50 is the concentration that produces a half-maximal response.
